Experimental data taken from the supplement of paper PMC10307832.

Key:
Experiment in all cases: relative viability (nuclei count vs DMSO), 5 days (fraction); higher = more cells survive
Carboplatin + Decitabine = compound: C1CC(C1)(C(=O)O)C(=O)O.[NH2-].[NH2-].[Pt+2] [Carboplatin] + Nc1ncn([C@H]2C[C@H](O)[C@@H](CO)O2)c(=O)n1 [Decitabine] (partner 2 µM)
Outline: (§1)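 For relative viability, nuclei counts in treated wells were divided by those in vehicle wells. Lung cancer cell lines had been pin-tool dosed in 1536-well plates the day after seeding and cultured for 5 days, then fixed and stained in one step (final 0.05% Triton X-100, 1% formaldehyde, 1 ug/ml Hoechst) and imaged at 4×. Doses were one drug alone or a fixed anchor-drug dose plus five library-drug doses (not always all listed) in √10 steps, and values are duplicate-plate medians.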

GSK126 + AZD7762 = compound: CC[C@H](C)N1C=C(C2=C(C=C(C=C21)C3=CN=C(C=C3)N4CCNCC4)C(=O)NCC5=C(C=C(NC5=O)C)C)C [GSK126] + NC(=O)Nc1cc(-c2cccc(F)c2)sc1C(=O)N[C@H]1CCCNC1 [AZD7762] (partner 0.2 µM)
Outline: as §1

Carboplatin + OSI-027 = compound: C1CC(C1)(C(=O)O)C(=O)O.[NH2-].[NH2-].[Pt+2] [Carboplatin] + COc1cccc2cc(-c3nc([C@H]4CC[C@H](C(=O)O)CC4)n4ncnc(N)c34)[nH]c12 [OSI-027] (partner 0.5 µM)
Outline: as §1

GSK126 + Navitoclax = compound: CC[C@H](C)N1C=C(C2=C(C=C(C=C21)C3=CN=C(C=C3)N4CCNCC4)C(=O)NCC5=C(C=C(NC5=O)C)C)C [GSK126] + CC1(C)CCC(c2ccc(Cl)cc2)=C(CN2CCN(c3ccc(C(=O)NS(=O)(=O)c4ccc(N[C@H](CCN5CCOCC5)CSc5ccccc5)c(S(=O)(=O)C(F)(F)F)c4)cc3)CC2)C1 [Navitoclax] (partner 0.5 µM)
Outline: as §1

Row | Cell Line | relative viability (Carboplatin + Decitabine; first compound 0.08 µM) | relative viability (Carboplatin + Decitabine; first compound 0.253 µM) | relative viability (Carboplatin + Decitabine; first compound 0.8 µM) | relative viability (Carboplatin + Decitabine; first compound 2.53 µM) | relative viability (Carboplatin + Decitabine; first compound 8 µM) | relative viability (GSK126 + AZD7762; first compound 0.08 µM) | relative viability (GSK126 + AZD7762; first compound 0.253 µM) | relative viability (GSK126 + AZD7762; first compound 0.8 µM) | relative viability (GSK126 + AZD7762; first compound 2.53 µM) | relative viability (GSK126 + AZD7762; first compound 8 µM) | relative viability (Carboplatin + OSI-027; first compound 0.08 µM) | relative viability (Carboplatin + OSI-027; first compound 0.253 µM) | relative viability (Carboplatin + OSI-027; first compound 0.8 µM) | relative viability (Carboplatin + OSI-027; first compound 2.53 µM) | relative viability (Carboplatin + OSI-027; first compound 8 µM) | relative viability (GSK126 + Navitoclax; first compound 0.08 µM) | relative viability (GSK126 + Navitoclax; first compound 0.253 µM) | relative viability (GSK126 + Navitoclax; first compound 0.8 µM) | relative viability (GSK126 + Navitoclax; first compound 2.53 µM) | relative viability (GSK126 + Navitoclax; first compound 8 µM)
1 | NCI-H596 | 1.16 | 1.13 | 0.986 | 0.958 | 0.629 | 1.12 | 0.904 | 1.2 | 1.12 | 0.988 | 0.909 | 0.803 | 0.781 | 0.654 | 0.514 | 0.92 | 0.85 | 0.988 | 1.1 | 0.961
2 | NCI-H1792 | 0.475 | 0.562 | 0.497 | 0.372 | 0.291 | 0.68 | 0.712 | 0.537 | 0.58 | 0.567 | 0.724 | 0.691 | 0.824 | 0.679 | 0.566 | 0.733 | 0.644 | 0.655 | 0.664 | 0.658
3 | NCI-H1944 | 0.456 | 0.456 | 0.437 | 0.417 | 0.363 | 0.476 | 0.46 | 0.441 | 0.547 | 0.461 | 0.539 | 0.407 | 0.41 | 0.382 | 0.317 | 1.28 | 1.02 | 1.01 | 0.996 | 1.2
4 | NCI-H1755 | 0.702 | 0.674 | 0.737 | 0.668 | 0.607 | 0.468 | 0.446 | 0.395 | 0.461 | 0.412 | 0.823 | 0.786 | 0.712 | 0.729 | 0.74 | 1.07 | 0.996 | 0.999 | 0.997 | 0.969
5 | H3255 | 0.775 | 0.504 | 0.687 | 0.622 | 0.421 | 1.08 | 0.887 | 0.938 | 1.05 | 0.788 | 0.591 | 0.513 | 0.529 | 0.519 | 0.488 | 0.591 | 0.606 | 0.5 | 0.522 | 0.505
6 | NCI-H23 | 0.377 | 0.266 | 0.298 | 0.291 | 0.276 | 0.248 | 0.214 | 0.208 | 0.29 | 0.205 | 0.843 | 0.599 | 0.671 | 0.575 | 0.435 | 0.847 | 0.837 | 0.895 | 0.996 | 1.03
